Test results reported in US20170157051A1, “SOLUBILITY ENHANCEMENT FOR HYDROPHOBIC DRUGS” (Freund Pharmatec Ltd., priority 2013, published 2017).
Like-named read-outs stand apart in the source and are kept apart here.

Columns and labels:
[1] = cited from earlier work
[2] = Dissolution profile in biorelevant media (FaSSIF / FaSSGF), paddle apparatus; format: physicochemical; details: FaSSIF (fenofibrate, nifedipine, nimodipine, nabumetone) or FaSSGF (ibuprofen, gemfibrozil); 900 ml, 37° C., 75 rpm
Procedure: Dissolution profile: The drug release profiles of the above formulations and the reference products (TRICOR ® 48 mg Fenofibrated tablets and Buplex® 200 mg Ibuprofen tablets) was tested in biorelevant dissolution media; using Fasted State Simulated Intestinal Fluid (FaSSIF) for Tricor® and Fasted State Simulated Gastric Fluid (FaSSGF) for Buplex®. USP […] (Paddle) was used.
Media temperature: 37° C.;
Paddle rotation speed: 75 rpm;
The method used to measure the dissolution rate is as described under ‘dissolution profile’ in the previous example. […] All other conditions remained the same.

SMILES: Cc1ccc(C)c(OCCCC(C)(C)C(=O)O)c1 [Gemfibrozil]
- solubility in water ([1]; at 25° C.): < 1000 µg/mL

SMILES: CC(C)Cc1ccc(C(C)C(=O)O)cc1 (stereo not shown) [Ibuprofen, iso-butyl-propanoic-phenolic acid]
- solubility in water [1]: Less than 1 mg/ml
- % drug dissolved / rate and extent of dissolution versus marketed product [2]: 1:2.7 ratio of Maisine:Kolliphor showed higher dissolution than a 1:1.8 ratio

SMILES: COc1ccc2cc(CCC(C)=O)ccc2c1 [Nabumetone]
- solubility in water (in words) [1]: practically insoluble in water
